Source: patent US6794414B1, “Method and compositions for treating diseases mediated by transglutaminase activity” (Yeda Research and Development Co. Ltd., priority 1998, dated 2004)
Entries after “also recorded” stand apart in the source; their conditions may differ.

What was measured:
[1] = system: mice with experimental autoimmune encephalomyelitis; test: Experimental autoimmune encephalomyelitis (EAE) in mice; assay type: in vivo; settings: for Paralysis / paralytic disease in EAE: paraparetic mice with EAE
Method: Paraparetic mice with experimental autoimmune encephalomyelitis were administered one dose of monodansyl cadaverine. […] Thus, diseases mediated in part by transglutaminase can be treated with transglutaminase inhibitors.
0.05 mM monodansyl cadaverine was injected intraperitoneally into one of two groups of mice. The injection was given on day 13 after induction of disease, marked in the FIG. by an arrow.
To obtain the data shown in FIG. 6, experimental autoimmune encephalitis (EAE) was induced in ten week old SJL female mice. EAE was induced by an injection of 4 mg of mouse spinal cord homogenate in 1 ml of CFA. The injections were given intradermally in three places (two places in the flanks and one in the neck). On the same day, day 1, and on day 2, an intraperitoneal injection of pertussis toxin was given. The mice were treated with different concentrations of mono dansyl cadaverine on day 10. One group was injected twice on days 7 and 10 with […] mono dansyl cadaverine.
The grading score for EAE is 0, normal; 1, mild paraparesis; 2, paraparesis; 3, severe paraparesis; 4, quadriparesis; 5, dead.

[2] = system: transglutaminase (TGase); test: TGase assay on human brain extracts ([3H]putrescine incorporation into casein); assay type: biochemical; settings: for TGase Activity + Casein + MDC / TGase Activity − Casein + MDC: 5 mM mono dansyl cadaverine, mean ± SEM, n = 2; for TGase Activity − Casein + MDC: no casein
Method: Each assay contained 80 μg of brain extract, 4 mg/ml N,N-dimethylated casein, 50 mM Tris (pH 8.0), 5 mM CaCl2, 5 mM dithiothreitol (DTT), and 0.37 mM putrescine (1:5, ^3 [H]putrescine:putrescine) in 80 μL. The reaction was incubated at 37° C. for 30 minutes. After it was washed in 500 μL of 10% trichloro acetic acid (TCA) and washed again in 100% ethanol, the reaction was resuspended in 220 μL of 0.1 M NaOH. The resuspended pellet was added to 10 ml of scintillation liquid. […] For lymphoid cells, 10^6 cells were suspended in 0.5 ml buffer for five minutes, then centrifuged at 1200×g for ten minutes.
Approximately 500 mg of brain tissue was homogenized in 2 ml of 10 mM Hepes (pH 7.4) containing 150 mM NaCl, 0.2 mg/ml leupeptin, 0.2 mg/ml aprotinin, 0.2 mg/ml pepstatin, and 0.5 mM phenylmethylsulfonyl fluoride (PMSF). The homogenate was centrifuged at 4° C. for ten minutes at 1000×g, and the supernatant was then centrifuged at 4° C. for ten minutes at 10,000×g to separate the cytoplasmic proteins. The remaining nuclear pellet was washed twice, for ten minutes each time, with the homogenization buffer at 4° C. at 1000×g, and then suspended in 1 ml of 10 mM Tris-Cl, 140 mM NaCl, 3 mM MgCl2, 0.5 mM PMSF, 0.1% sodium dodecyl sulfate (SDS), and 1% Nonylphenyl-polyethylene glycol (Nonidet P-40) (pH 7.4). The homogenate was spun at 4° C. for ten minutes at 8000×g. This procedure increased the level of beta-demn, a protein found more frequently in the cytoplasm than in the nucleus, enriching it 15.5-fold in the cytoplasm relative to the nucleus (Zhao et al, 1998).
This method for measuring brain transglutaminase was adapted from Folk and Cole (Folk et al, 1966). Casein serves as an excellent glutamine-containing protein substrate and […], while putrescine serves as the attacking nucleophile (Cooper et al, 1997). In the Huntington's Disease brain, in both the affected cortex andjin relatively unaffected areas like the cerebellum, which are affected in juvenile Huntington's Disease, transglutaminase activity was greater than in the corresponding areas of the control brain (HD cortex 14888±2864 cpm vs. normal cortex 6697±1410 cpm, mean ±1SEM, p<0.009 for HD cortex versus normal cortex; HD cerebellum 11221±2426 cpm vs. control cerebellum 2606±719 cpm, mean ±1SEM, p<0.001 for HD cerebellum versus control cerebellum.) Transglutaminase activity was also greater in extracts of nuclei from brains of Huntington's Disease patients than controls (HD brain cortical nuclear extract 6368±764 cpm vs. control brain cortical nuclear extract 2357±226 cpm, mean ±1SEM, Table 1).

[3] = molecular target: T1, httQ23 (90 amino acids), P42858
T1 chain: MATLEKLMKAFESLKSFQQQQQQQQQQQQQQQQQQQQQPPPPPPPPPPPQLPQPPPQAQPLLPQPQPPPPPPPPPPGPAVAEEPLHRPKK

[4] = molecular target: T2, httQ67 (135 amino acids), P42858
T2 chain: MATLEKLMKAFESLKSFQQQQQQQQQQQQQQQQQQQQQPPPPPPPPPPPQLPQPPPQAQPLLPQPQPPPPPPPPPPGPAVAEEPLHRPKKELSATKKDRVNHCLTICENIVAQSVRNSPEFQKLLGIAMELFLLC

[5] = molecular target: T3, httQ41 (100 amino acids; elsewhere given as 110 amino acids), P42858
T3 chain: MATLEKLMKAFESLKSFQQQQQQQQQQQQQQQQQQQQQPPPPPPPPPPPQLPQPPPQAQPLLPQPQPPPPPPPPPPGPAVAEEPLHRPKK

[6] = molecular target: T4, httQ23 (310 amino acids), P42858
T4 chain: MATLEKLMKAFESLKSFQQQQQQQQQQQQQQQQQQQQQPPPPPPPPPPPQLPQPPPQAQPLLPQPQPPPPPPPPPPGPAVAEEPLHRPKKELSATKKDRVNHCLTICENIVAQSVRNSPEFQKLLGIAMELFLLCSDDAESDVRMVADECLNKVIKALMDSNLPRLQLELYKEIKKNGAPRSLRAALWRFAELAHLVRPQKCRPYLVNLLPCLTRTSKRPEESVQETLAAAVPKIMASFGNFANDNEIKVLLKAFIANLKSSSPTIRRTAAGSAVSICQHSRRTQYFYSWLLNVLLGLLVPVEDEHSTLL

[7] = molecular target: T5, httQ41 (330 amino acids), P42858
T5 chain: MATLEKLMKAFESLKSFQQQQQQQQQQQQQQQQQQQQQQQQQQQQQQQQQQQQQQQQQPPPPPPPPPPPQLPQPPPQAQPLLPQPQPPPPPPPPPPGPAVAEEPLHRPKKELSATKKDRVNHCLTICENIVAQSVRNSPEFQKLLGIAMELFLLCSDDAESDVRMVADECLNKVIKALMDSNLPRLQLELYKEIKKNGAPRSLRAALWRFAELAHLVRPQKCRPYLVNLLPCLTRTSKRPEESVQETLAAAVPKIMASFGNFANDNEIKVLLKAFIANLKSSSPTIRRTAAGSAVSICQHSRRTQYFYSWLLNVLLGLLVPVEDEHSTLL

Molecule: CN(C)c1cccc2c(S(=O)(=O)NCCCCCN)cccc12 [monodansyl cadaverine]
- Effect on EAE (FIG. 5), p compared to control ([1]; 0.05 mM injected intraperitoneally on day 13 after induction, following the second day of injection): significant influence (p=0.03 compared to control)
- Mononuclear cell infiltration in brains by hematoxilin-eosin staining ([1]; FIG. 5 experiment, versus vehicle-injected controls): high levels of infiltration
- Side effects ([1]; mice treated in vivo): no untoward side effects
- Lymphocytic infiltration / accumulation of inflammatory lymphocytes in brain ([1]; mice with EAE, histology): prevented the accumulation of inflammatory lymphocytes in the brain; also recorded: reversed
- Paralysis / paralytic disease in EAE [1]: reversed paralytic disease; also recorded: Ongoing paralysis was reversed
- Disease status after treatment ([1]; paraparetic mice with EAE treated in vivo): apparently free of disease; also recorded: free of disease after treatment
- Paralysis / paralytic disease in EAE ([1]; listed as monodensyl cadaverine): can reverse ongoing paralysis
- TGase Activity + Casein + MDC ([2]; Control Cerebellum extract): 83 ± 14 CPM
- TGase Activity − Casein + MDC ([2]; Control Cerebellum extract): 117 ± 30 CPM
- TGase Activity + Casein + MDC ([2]; Control Cortex extract): 63 ± 10 CPM
- TGase Activity − Casein + MDC ([2]; Control Cortex extract): 151 ± 39 CPM
- TGase Activity + Casein + MDC ([2]; HD Cerebellum extract): 186 ± 57 CPM
- TGase Activity − Casein + MDC ([2]; HD Cerebellum extract): 58 ± 13 CPM
- TGase Activity + Casein + MDC ([2]; HD Cortex extract): 94 ± 18 CPM
- TGase Activity − Casein + MDC ([2]; HD Cortex extract): 81 ± 17 CPM
- Inhibition of enzymatic (transglutaminase) activity of brain extract ([2]; cytosolic extract from HD and control brain, putrescine incorporation into casein): completely inhibited

B1: guinea pig liver TGase (Sigma) (protein)
chain: AEDLILERCDLQLEVNGRDHRTADLCRERLVLRRGQPFWLTLHFEGRGYEAGVDTLTFNAVTGPDPSEEAGTMARFSLSSAVEGGTWSASAVDQQDSTVSLLLSTPADAPIGLYRLSLEASTGYQGSSFVLGHFILLYNPRCPADAVYMDSDQERQEYVLTQQGFIYQGSAKFINGIPWNFGQFEDGILDICLMLLDTNPKFLKNAGQDCSRRSRPVYVGRVVSAMVNCNDDQGVLQGRWDNNYSDGVSPMSWIGSVDILRRWKDYGCQRVKYGQCWVFAAVACTVLRCLGIPTRVVTNFNSAHDQNSNLLIEYFRNESGEIEGNKSEMIWNFHCWVESWMTRPDLEPGYEGWQALDPTPQEKSEGTYCCGPVPVRAIKEGHLNVKYDAPFVFAEVNADVVNWIRQKDGSLRKSINHLVVGLKISTKSVGRDEREDITHTYKYPEGSEEEREAFVRANHLNKLATKEEAQEETGVAMRIRVGQNMTMGSDFDIFAYITNGTAESHECQLLLCARIVSYNGVLGPVCSTNDLLNLTLDPFSENSIPLHILYEKYGDYLTESNLIKVRGLLIEPAANSYVLAERDIYLENPEIKIRVLGEPKQNRKLIAEVSLKNPLPVPLLGCIFTVEGAGLTKDQKSVEVPDPVEAGEQAKVRVDLLPTEVGLHKLVVNFECDKLKAVKGYRNVIIGPA
- aggregation into a high molecular weight polymer (35S gel) [3]: upon addition of transglutaminase, httQ23 (90 amino acids), httQ41 (100 amino acids), and httQ67 (135 amino acids) all aggregate into a high molecular weight polymer within 30 minutes
- aggregation into a high molecular weight polymer (35S gel) [4]: upon addition of transglutaminase, httQ23 (90 amino acids), httQ41 (100 amino acids), and httQ67 (135 amino acids) all aggregate into a high molecular weight polymer within 30 minutes
- amount of aggregation compared to httQ23 (densitometry) [4]: 2-3 fold greater amount of aggregation of httQ41 and httQ67 compared to httQ23 at each concentration of transglutaminase
- aggregation into a high molecular weight polymer (35S gel) [5]: upon addition of transglutaminase, httQ23 (90 amino acids), httQ41 (100 amino acids), and httQ67 (135 amino acids) all aggregate into a high molecular weight polymer within 30 minutes
- amount of aggregation compared to httQ23 (densitometry) [5]: 2-3 fold greater amount of aggregation of httQ41 and httQ67 compared to httQ23 at each concentration of transglutaminase
- aggregation into a high molecular weight polymer (35S gel) [6]: upon addition of transglutaminase, both httQ23 (310 amino acids) and httQ41 (330 amino acids) aggregate into a high molecular weight polymer within 30 minutes
- aggregation into a high molecular weight polymer (35S gel) [7]: upon addition of transglutaminase, both httQ23 (310 amino acids) and httQ41 (330 amino acids) aggregate into a high molecular weight polymer within 30 minutes
